# Results published in patent publication US5077195A, “Polypeptides complementary to peptides or proteins having an amino acid sequence or nucleotide coding sequence at least partially known and methods of design therefor” (Board of Reagents, The University of Texas System, priority 1986, dated 1991).
# Several values for one entry are separate records, joined by “and”; a condition that tells them apart may be missing. Identical values can stand only once. Where no end group is shown, it is not given here.
# Legend:
# LHRH = LHRH (Homo sapiens, UniProt P01148); test: Reverse hemolytic plaque assay, LHRH-stimulated LH release from pituitary cells; type: cell-based
# Experimental: A reverse hemolytic plaque assay (Smith, et al.), Method in Enzymology, 124, p.
# Plaques were analyzed by determining plaque area with an image analysis (Bioquant or Image Technology Corp. Model 300) of 125×-500× microscopic enlargements.
# I^125 ACTH (1-39) = biological target: T1, I^125 ACTH (1-39) (Homo sapiens, UniProt P01189); test: ^125 I-ACTH binding to peptide-coated microtiter wells; conditions: for CPM bound ^125 I-ACTH: Table 10; for CPM Bound ^125 I-ATCH: Table 11
# T1 construct: I^125 ACTH (1-39) (New England Nuclear Boston, MA); purchased New England Nuclear (Boston, MA)
# T1 sequence (P01189 138-176 limits assumed): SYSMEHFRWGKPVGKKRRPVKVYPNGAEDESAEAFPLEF
# Experimental: Utilizing techniques described in Example 1B, polyvinyl microtiter wells were coated with 3'-5' HTCA from a 1 mM solution thereof or with BSA.
# The BSA and 3'-5' HTCA coated wells were washed and then treated with one of three solutions of I^125 ACTH (1-39) (New England Nuclear Boston, MA) having different concentrations. After a forty five minute incubation period the solution was removed and the microtiter wells extensively washed. The microtiter wells were separated and assayed for iodine^125content in a Beckman Gamma 5500 gamma counter. Bound ^125 I-ACTH was measured in duplicate at three concentrations in the absence and presence of excess unlabelled ACTH.
# Utilizing the cRNA sequence and HTCA sequence shown in Table 8 of Example 1A, a series of peptides having a carboxy-terminal portion of the HTCA amino acid were synthesized. A pentamer (5-mer) contained the amino acid sequence: H2 N-Phe-His-Gly-Val-Arg-COOH. A decamer (10-mer) contained the amino acid sequence: H2 N-[…]COOH. A twenty membered peptide (20-mer) contained the amino acids sequence: H2 N-[…] Val-Arg-COOH. Each of thes peptides was used to coat microtiter wells and the coated wells tested for the ability to bind ^125 I-ACTH as described in Example 1C.
# A 24-mer HTCA variant (R-HTCA) with reversed amino acid sequence directionality (amino-terminal and carboxy-terminal ends being reversed) was synthesized and had the following sequence: H2 N-[…] Arg-His-Leu-His-Val-Gly-COOH. The well-coating and ^125 I-ACTH binding procedures were performed as described in Example 1-C and the resultant data shown in Table 11.
# ACTH (1-24) = biological target: T2, ACTH (1-24) (Homo sapiens, UniProt P01189); test: ELISA binding of ACTH to HTCA-coated microtiter wells
# T2 construct: 10 ug synthetic ACTH (1-24) in PBS-Tween buffer; purchased Organon (West Orange, N.J.); host or cells: chemical synthesis
# Experimental: From 1 to 25 micrograms (ug) per well of HTCA or insulin in carbonate-bicarbonate coating buffer were added to 96 well round bottom microtiter plates and incubated at 4° C. for 8 hr. The plates were then washed with phosphate buffered saline (PBS)-Tween 20 (Sigma Chemical Co., St. Louis, Mo.) buffer.
# To the insulin-coated wells and to some of the HTCA-coated wells was added 10 ug synthetic ACTH (1-24) in PBS-Tween buffer. Control wells (HTCA alone) contained only PBS-Tween. The plates were incubated at room temperature for 2 hr. and then washed three times with PBS-Tween buffer. Rabbit antisera directed against the amide of synthetic ACTH 1-13 (Accurate Biochemicals, Westbury N.Y.) was added to each well and the plates were incubated for 1 hr at room temperature. Following 3 washes with PBS-Tween buffer, alkaline phosphatase-conjugated goat anti-rabbit Ig G (Miles Laboratories, Elkharbt, Ind.) in PBS-Tween buffer (1:300 dilution) was added. After inculation at room temperature for 1 hr, the plates were washed three times with PBS-Tween buffer and each well was treated with 200 microliters (ul) of p-nitrophenyl phosphate (1 mg/ml in carbonate-bicarbonate buffer) for 11/2 hr. at room temperature. The enzymatic reaction was then stopped by the addition of 3N NaOH (50 ul) to each well and the optical absorbance of p-nitrophenol the alkaline phosphatase product, was measured at 405 nm. The ACTH bound to the coated microtiter wells was measured by this enzyme-linked immunoabsorbent assay (ELISA).
# A microtiter plate was prepared and treated generally as described above but was coated with 3.7 nmol/well HTCA. To each coated well was added a solution of 3.7 nmol ACTH combined with the amounts of HTCA designated on the abscissa in FIG. 4.
# ^125 I-ACTH = biological target: T3, ^125 I-ACTH (Homo sapiens, UniProt P01189); test: Solid-phase binding of ^125 I-ACTH to 5'-3' and 3'-5' complementary peptides; conditions: wells coated 2 mg/ml
# T3 construct: ACTH plates+immunized rabbit immunoglobulin
# T3 sequence (P01189 138-176 limits assumed): T1 sequence (P01189 138-176 limits assumed)
# Experimental: A solid-phase binding assay was used to determine the ability of both the 5'-to-3' and the 3'-to-5'-complementary-RNA-strand peptides (see Examples 1A and 1C) to bind ^125 I-ACTH. The peptides were diluted in phosphate-buffered saline (140 mM-NaCl/3 mM-KCl/0.1% NaN3 /20 mM-phosphate buffer, pH 7.4) to 2 mg/ml, and 0.2 ml/well was placed into poly(vinyl chloride) micro-titre plates (Becton and Dickinson, Oxnard, CA, U.S.A.). After 18 h at 4° C., unbound peptide was removed by washing three times with phosphate-buffered saline containing 0.1% bovine serum albumin (Sigma Chemical Co., St. Louis, MO, U.S.A.). ^125 I-ACTH was diluted to various concentrations with phosphate-buffered saline containing 0.1% bovine serum albumin and incubated in peptide-coated wells for 60 minutes at 4° C. […] After incubation, unbound radiolabel was washed out with phosphate-buffered saline containing 0.1% bovine serum albumin, and the radioactivity of individual wells was measured by gamma-radiation counting. The amount of specifically bound radioactivity was determined by blocking ^125 I-ACTH binding with unlabelled ACTH. Additional controls included coating wells with insulin or bovine serum albumin (2 mg/ml) before the addition of the ^125 I-ACTH.
# [1] = conc ^125 I-ATCH, + excess ACTH
compound,measurement,setting,value
"C[C@H](N)C(=O)NCC(=O)N[C@H]1CSSC[C@@H](C(=O)O)NC(=O)[C@H](CO)NC(=O)[C@H]([C@@H](C)O)NC(=O)[C@H](Cc2ccccc2)NC(=O)[C@H]([C@@H](C)O)NC(=O)[C@H](CCCCN)NC(=O)[C@H](Cc2c[nH]c3ccccc23)NC(=O)[C@H](Cc2ccccc2)NC(=O)[C@H](Cc2ccccc2)NC(=O)[C@H](CC(N)=O)NC(=O)[C@H](CCCCN)NC1=O [Somatostatin, reference compound]","plaque area, percentage response to control assay","LHRH; 5 × 10^-10 M LHRH + Somatostatin 10^-4 M, Exp. 1 (Pre)",103%
APAEVFHGVR [10-mer],CPM bound ^125 I-ACTH,I^125 ACTH (1-39); conc ^125 I-ATCH,"8,927 CPM and 9,072 CPM"
same,CPM bound ^125 I-ACTH,I^125 ACTH (1-39); [1],345 CPM and 350 CPM
RVGHFVEAPALRHALLPARHLHVG [R-HTCA],binding of ^125 I-ACTH to coated wells (in words),I^125 ACTH (1-39),significant affinity for ACTH
same,CPM Bound ^125 I-ATCH,I^125 ACTH (1-39); 1:9 dil. ^125 I-ATCH,"1,101 CPM and 1,161 CPM"
same,CPM Bound ^125 I-ATCH,"I^125 ACTH (1-39); 1:9 dil. ^125 I-ATCH, + Excess ACTH",65 CPM and 69 CPM
same,CPM Bound ^125 I-ATCH,I^125 ACTH (1-39); conc ^125 I-ATCH,"10,392 CPM and 10,709 CPM"
"FHGVR [5-mer, H2 N-Phe-His-Gly-Val-Arg-COOH]",CPM bound ^125 I-ACTH,I^125 ACTH (1-39); 1:3 dilution ^125 I-ATCH,"3,514 CPM and 3,655 CPM"
same,CPM bound ^125 I-ACTH,"I^125 ACTH (1-39); 1:3 dilution ^125 I-ATCH, + excess ACTH",97 CPM and 95 CPM
same,CPM bound ^125 I-ACTH,I^125 ACTH (1-39); 1:9 dilution ^125 I-ATCH,995 CPM and 993 CPM
same,CPM bound ^125 I-ACTH,I^125 ACTH (1-39); [1],233 CPM and 245 CPM
"SRAQSIGPVL [5CA-LHRH, LEU--VAL--PRO--GLY--ILE--SER--GLN--ALA--ARG--SER]","plaque area, percentage response to control assay","LHRH; 5CA-LHRH alone 10^-5 M, Exp. 3",2.7%
same,"plaque area, percentage response to control assay","LHRH; 5CA-LHRH alone 10^-6 M, Exp. 3",0.5%
same,"plaque area, percentage response to control assay","LHRH; 5CA-LHRH alone 10^-7 M, Exp. 3",0.5%
same,"plaque area, percentage response to control assay","LHRH; 5 × 10^-10 M LHRH + 10^-4 M, Exp. 1 (Pre)",77%
same,"plaque area, percentage response to control assay","LHRH; LHRH + 10^-4 M, Exp. 2 (No)",61%
same,"plaque area, percentage response to control assay","LHRH; LHRH + 10^-4 M, Exp. 4 (Pre)",52%
same,"plaque area, percentage response to control assay","LHRH; LHRH + 10^-4 M, Exp. 5 (No)",52%
same,"plaque area, percentage response to control assay","LHRH; LHRH + 10^-5 M, Exp. 1 (Pre)",82%
same,"plaque area, percentage response to control assay","LHRH; LHRH + 10^-5 M, Exp. 2 (No)",52%
same,"plaque area, percentage response to control assay","LHRH; LHRH + 10^-5 M, Exp. 3 (Pre)",68%
same,"plaque area, percentage response to control assay","LHRH; LHRH + 10^-5 M, Exp. 4 (Pre)",63%
same,"plaque area, percentage response to control assay","LHRH; LHRH + 10^-5 M, Exp. 5 (No)",70%
same,"plaque area, percentage response to control assay","LHRH; LHRH + 10^-6 M, Exp. 1 (Pre)",110%
same,"plaque area, percentage response to control assay","LHRH; LHRH + 10^-6 M, Exp. 2 (No)",74%
same,"plaque area, percentage response to control assay","LHRH; LHRH + 10^-6 M, Exp. 3 (Pre)",98%
same,"plaque area, percentage response to control assay","LHRH; LHRH + 10^-6 M, Exp. 4 (Pre)",81%
same,"plaque area, percentage response to control assay","LHRH; LHRH + 10^-6 M, Exp. 5 (No)",81%
same,"plaque area, percentage response to control assay","LHRH; LHRH + 10^-7 M, Exp. 1 (Pre)",101%
same,"plaque area, percentage response to control assay","LHRH; LHRH + 10^-7 M, Exp. 2 (No)",74%
same,"plaque area, percentage response to control assay","LHRH; LHRH + 10^-7 M, Exp. 3 (Pre)",88%
same,"plaque area, percentage response to control assay","LHRH; LHRH + 10^-7 M, Exp. 4 (Pre)",78%
same,"plaque area, percentage response to control assay","LHRH; LHRH + 10^-7 M, Exp. 5 (No)",115%
same,"plaque area, percentage response to control assay","LHRH; LHRH + 10^-8 M, Exp. 1 (Pre)",105%
same,"plaque area, percentage response to control assay","LHRH; LHRH + 10^-8 M, Exp. 2 (No)",83%
same,"plaque area, percentage response to control assay","LHRH; LHRH + 10^-8 M, Exp. 4 (Pre)",96%
same,"plaque area, percentage response to control assay","LHRH; LHRH + 10^-8 M, Exp. 5 (No)",92%
same,"plaque area, percentage response to control assay","LHRH; LHRH + 10^-9 M, Exp. 1 (Pre)",119%
same,"plaque area, percentage response to control assay","LHRH; LHRH + 10^-9 M, Exp. 2 (No)",84%
same,"plaque area, percentage response to control assay","LHRH; LHRH + 10^-9 M, Exp. 4 (Pre)",95%
same,"plaque area, percentage response to control assay","LHRH; LHRH + 10^-9 M, Exp. 5 (No)",123%
HRAPLLAHRLAPAEVFHGVR [20-mer],CPM bound ^125 I-ACTH,I^125 ACTH (1-39); 1:3 dilution ^125 I-ATCH,613 CPM and 625 CPM
GVHLHRAPLLAHRLAPAEVFHGVR [HTCA],ACTH-HTCA binding that was specific,"ACTH (1-24); 3.7 nmol/well HTCA coating, competition with soluble HTCA",about 90%
same,Kd,"ACTH (1-24); wells coated with 3.7 nmol/well HTCA, 3.7 nmol ACTH, read-out: Kd (Scatchard analysis) of ACTH-HTCA binding",1900 nM
insulin: control coating protein [reference compound],binding on control plates relative to binding to complementary peptide plates,^125 I-ACTH,less than 5%
same,binding of ACTH (1-24) to coated microtiter wells (in words),"ACTH (1-24); 10 ug ACTH, ELISA",not by insulin coated microtiter wells
